The text below walks through data of ChEMBL document CHEMBL4196094, “Structure-based design of bacterial transglycosylase inhibitors incorporating biphenyl, amine linker and 2-alkoxy-3-phosphorylpropanoate moieties” (Eur J Med Chem, 2018).

The subject of experiment [1] is Staphylococcus aureus. Briefly: Antibacterial activity against Staphylococcus aureus after 16 to 18 hrs. Type of experiment: functional.
In experiment [2] the target is T1, Penicillin-binding protein 1B (Acinetobacter baumannii) (UniProt G1C7A4).
T1 sequence (whole entry): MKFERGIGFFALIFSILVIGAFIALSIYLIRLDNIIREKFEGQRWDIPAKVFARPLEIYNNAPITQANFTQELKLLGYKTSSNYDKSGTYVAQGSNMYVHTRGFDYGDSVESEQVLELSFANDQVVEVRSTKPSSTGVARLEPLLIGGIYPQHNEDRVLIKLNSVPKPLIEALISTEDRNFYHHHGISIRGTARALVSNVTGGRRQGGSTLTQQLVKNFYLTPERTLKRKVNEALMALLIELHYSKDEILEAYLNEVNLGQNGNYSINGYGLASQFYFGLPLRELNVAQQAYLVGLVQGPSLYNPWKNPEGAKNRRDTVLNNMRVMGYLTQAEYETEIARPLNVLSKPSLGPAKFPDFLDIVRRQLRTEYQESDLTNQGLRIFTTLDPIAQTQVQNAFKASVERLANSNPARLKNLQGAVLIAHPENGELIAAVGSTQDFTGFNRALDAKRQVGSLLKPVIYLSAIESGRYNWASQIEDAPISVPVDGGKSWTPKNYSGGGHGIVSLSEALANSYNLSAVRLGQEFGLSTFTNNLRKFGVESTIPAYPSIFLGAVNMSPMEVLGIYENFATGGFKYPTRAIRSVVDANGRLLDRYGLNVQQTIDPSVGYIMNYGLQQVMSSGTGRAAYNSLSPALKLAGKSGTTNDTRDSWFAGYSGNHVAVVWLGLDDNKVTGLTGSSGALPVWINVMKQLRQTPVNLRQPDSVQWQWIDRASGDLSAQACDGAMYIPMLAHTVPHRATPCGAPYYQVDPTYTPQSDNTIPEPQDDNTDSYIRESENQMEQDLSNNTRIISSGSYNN
As to the kind of experiment: Inhibition of Acinetobacter baumannii PBP1b transglycosylase activity at 500 uM using NBD-lipid 2 as substrate after 2 hrs by muramidase enzyme coupled HPLC analysis relative to control.

Experiment [3] concerns the target T1, Penicillin-binding protein 1B (Acinetobacter baumannii). As to the kind of experiment: Inhibition of Acinetobacter baumannii PBP1b transglycosylase activity at 1 uM using NBD-lipid 2 as substrate after 2 hrs by muramidase enzyme coupled HPLC analysis relative to control.
The target is the same in experiment [4]. As to the kind of experiment: Inhibition of Acinetobacter baumannii PBP1b transglycosylase activity at 200 uM using NBD-lipid 2 as substrate after 2 hrs by muramidase enzyme coupled HPLC analysis relative to control.
Experiment [5] concerns the target T2, Penicillin-binding protein 1B (Acinetobacter baumannii, UniProt G1C7A4).
T2 sequence (G1C7A4 whole entry): T1 sequence (whole entry)
Briefly: Inhibition of Acinetobacter baumannii PBP1b transglycosylase activity using NBD-lipid 2 as substrate after 2 hrs by muramidase enzyme coupled HPLC analysis.

pIC50: −log10 of the molar value. Values after ≈ are worked out from the molar mass of the structure shown.

Consider `CC1(C)S[C@@H]2[C@H](NC(=O)[C@H](N)c3ccccc3)C(=O)N2[C@H]1C(=O)O` [AMPICILLIN], for which, in experiment [1], the MIC95 stood at 1.4 µM (≈ 0.489 µg/mL). Molecule `CCCCCCCCCCCCn1cc(CO[C@H](CP(=O)(O)OCCCN(Cc2ccc(-c3ccccc3)cc2)C(=O)OCC(Cl)(Cl)Cl)C(=O)OCC)nn1` came in with an inhibition in experiment [2] of 70%. Still for that read-out and setting: to `CCCCCCCCCCCCn1cc(CO[C@H](CP(=O)(O)OCCCNC(=O)c2ccc(-c3ccccc3)cc2)C(=O)O)nn1` belongs less than 5%. Molecule `C=C(C/C=C(\C)CCC=C(C)C)CCC(C)(C)/C=C/CC/C(C)=C\CO[C@H](COP(=O)(O)O[C@H]1O[C@H](C(N)=O)[C@@](C)(O)[C@H](OC(N)=O)[C@H]1O[C@@H]1O[C@H](CO[C@@H]2O[C@H](CO)[C@@H](O)[C@H](O)[C@H]2O)[C@@H](O[C@@H]2O[C@H](C)[C@@H](O[C@@H]3O[C@H](C(=O)NC4=C(O)CCC4=O)[C@H](O)[C@H](O)[C@H]3O)[C@H](O)[C@H]2NC(C)=O)[C@H](O)[C@H]1NC(C)=O)C(=O)O` gave an inhibition in experiment [3] of 100%. In experiment [2], `CCCCCCCCCCCCn1cc(CO[C@H](CP(=O)(O)OCCCNCc2ccc3ccccc3c2)C(=O)OCC)nn1` yielded an inhibition of 55%. The same molecule gave an MIC95 in experiment [1] of 6.3 µM (≈ 4.06 µg/mL). On to `CCCCCCCCCCCCn1cc(CO[C@H](CP(=O)(O)OCCCNCc2ccc(-c3ccccc3)cc2)C(=O)O)nn1`, for which, in experiment [2], the inhibition was found to be 13%. The same measure, in the same setting: to `CCCCCCCCCCCCn1cc(CO[C@H](CP(=O)(O)OCCCNCc2ccc3ccccc3c2)C(=O)O)nn1` belongs 48%. For the molecule `CCCCCCCCCCCCn1cc(CO[C@H](CP(=O)(O)OCCNCc2ccc(-c3ccccc3)cc2)C(=O)OCC)nn1`, in experiment [4], the inhibition was found to be 99%. For the same molecule, in experiment [5], the negative-log IC50 (pIC50) is 3.80. The molecule further returned an MIC95 in experiment [1] of 6.3 µM (≈ 4.14 µg/mL). The molecule `CCCCCCCCCCCCn1cc(CO[C@H](CP(=O)(O)OCCCNC(=O)c2ccc(-c3ccccc3)cc2)C(=O)OCC)nn1` displayed an inhibition in experiment [2] of less than 5%.

The molecule `CCCCCCCCCCCCn1cc(CO[C@H](CP(=O)(O)OCCCN(Cc2ccc(-c3ccccc3)cc2)C(=O)OC(C)(C)C)C(=O)OCC)nn1` gave an inhibition in experiment [2] of 33%.

Turning to `CCCCCCCCCCCCn1cc(CO[C@H](CP(=O)(O)OCCCN(Cc2ccc(-c3ccccc3)cc2)C(=O)OCC(Cl)(Cl)Cl)C(=O)O)nn1`, the inhibition in experiment [2] was less than 5%. Take `CCCCCCCCCCCCn1cc(CO[C@H](CP(=O)(O)OCCCNCc2ccc(-c3ccccc3)cc2)C(=O)OCC)nn1`: the figures for the inhibition in experiment [2] and in experiment [4] were 90% and 34%, respectively. In experiment [5], this molecule had a pIC50 of 3.63. The same molecule registered an MIC95 in experiment [1] of 6.3 µM (≈ 4.23 µg/mL).

For the molecule `CCCCCCCCCCCCn1cc(CO[C@H](CP(=O)(O)OCCCN(Cc2ccc(-c3ccccc3)cc2)Cc2ccc(-c3ccccc3)cc2)C(=O)OCC)nn1`, the inhibition in experiment [4] turned out to be 99%. This molecule gave a pIC50 in experiment [5] of 4.06. This molecule also displayed an MIC95 in experiment [1] greater than 400 µM. In experiment [4], `CCCCCCCCCCCCn1cc(CO[C@H](CP(=O)(O)OCCCN(C)Cc2ccc(-c3ccccc3)cc2)C(=O)OCC)nn1` had an inhibition of 99%. Moreover, the pIC50 in experiment [5] is 3.82. In experiment [1], the MIC95 was found to be 6.3 µM (≈ 4.31 µg/mL).
